Assay results as given in article PMC8333425, “Discovery of a dual Ras and ARF6 inhibitor from a GPCR endocytosis screen” (Nature Communications, 2021).
Where “and” joins values, the source holds several entries; their conditions need not be identical. Identical values can stand only once.

Biological target: T1, β-arrestin/AP-2 complex (Homo sapiens, UniProt P63010)
T1 construct: expressed in transfected cells; host or cells: HEK293SL
T1 sequence (P63010 1-937): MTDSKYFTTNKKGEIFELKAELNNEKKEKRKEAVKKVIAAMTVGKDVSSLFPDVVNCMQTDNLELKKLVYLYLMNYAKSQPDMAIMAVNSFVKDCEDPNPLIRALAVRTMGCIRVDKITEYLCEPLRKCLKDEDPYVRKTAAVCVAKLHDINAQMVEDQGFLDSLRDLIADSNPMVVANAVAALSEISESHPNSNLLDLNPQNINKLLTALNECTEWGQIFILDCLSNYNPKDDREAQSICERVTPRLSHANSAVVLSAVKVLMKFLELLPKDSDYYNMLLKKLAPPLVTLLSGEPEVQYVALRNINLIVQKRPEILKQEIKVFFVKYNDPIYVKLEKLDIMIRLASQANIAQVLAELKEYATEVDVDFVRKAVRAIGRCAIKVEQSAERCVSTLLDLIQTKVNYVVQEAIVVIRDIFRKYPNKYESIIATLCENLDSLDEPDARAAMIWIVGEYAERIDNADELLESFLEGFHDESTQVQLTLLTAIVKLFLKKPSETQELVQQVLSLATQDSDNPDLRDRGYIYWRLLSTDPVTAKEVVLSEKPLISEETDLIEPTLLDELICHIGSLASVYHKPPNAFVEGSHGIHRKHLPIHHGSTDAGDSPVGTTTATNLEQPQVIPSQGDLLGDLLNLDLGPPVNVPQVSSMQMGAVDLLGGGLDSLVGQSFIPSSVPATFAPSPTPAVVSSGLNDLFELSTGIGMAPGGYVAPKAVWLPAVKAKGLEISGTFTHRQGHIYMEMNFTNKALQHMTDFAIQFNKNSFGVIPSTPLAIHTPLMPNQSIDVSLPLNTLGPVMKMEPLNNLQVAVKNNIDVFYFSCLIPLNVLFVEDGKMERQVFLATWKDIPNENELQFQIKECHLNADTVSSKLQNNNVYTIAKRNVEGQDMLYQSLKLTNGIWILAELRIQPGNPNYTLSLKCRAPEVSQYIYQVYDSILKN
Assay: BRET sensor of β-arrestin2 binding to AP-2 (β2-Adaptin-YFP), AT1R-mediated
Assay type: cell-based
Conditions: for AngII-promoted BRET, binding of β-arrestin2 to AP-2: individual experiments
Experimental: HEK293 cells were transfected with a BRET sensor that monitors the interaction between β-arrestins and the β-appendage of AP-2 (Fig. 2a)[26],[33]. […] The small GTPase ARF6, which binds β-arrestins and facilitates AP-2 and clathrin recruitment at the PM, is also necessary for CCPs initiation and receptor internalization. Therefore, ARF6 activity was assessed using the protein-3 binding domain (PBD) of the golgi-associated, gamma adaptin ear-containing, ARF-binding protein 3 (GGA3) fused to GST (GST-GGA3-PBD) in a pull-down assay, which allows the detection of GTP-bound ARF6 in cells[34] (Fig. 2b). […] This inhibition was selective for ARF6 since 21 had no effect on AT1R-dependent ARF1 activation (Supplementary Fig. 2a). We also devised a BRET assay to quantitatively assess 21’s action on ARF activity. The ARF BRET assay was created using the GGA3-PBD fused to RlucII (GGA3-PBD-RlucII) and the rGFP anchored at the PM (rGFP-CAAX) (Supplementary Fig. 3a). […] 21 blocked ARF’s activation by 40–60% following AT1R stimulation (Fig. 2c).
HEK293SL cells were seeded at a density of 7.5 × 10^5 cells per 100-mm dish and 24 h later, transiently transfected as such. For receptor internalization experiments, cells were transfected with 0.12 μg AT1R-RlucII, B2R-RlucII, or β2AR-RlucII and 0.48 μg of either rGFP-CAAX (to assess removal from the PM) or rGFP-FYVE (to assess accumulation in the endosomes). For β-arrestin recruitment assays, cells were transfected with 0.48 μg of receptor-YFP along with 0.12 μg of β-arrestin-RlucII. For β-arrestin/AP-2 binding experiments, cells were transfected with 1 μg Flag-AT1R, 1 μg β2-Adaptin-YFP, and 0.12 μg β-arrestin2-RlucII. For G protein activation, cells were transfected with 3 μg of sp-Flag-AT1R along with either 4.5 μg of the Gαq-polycistronic BRET sensor or 0.24 μg of the Gαi3-RlucII and 0.6 μg of GFP10-Gγ2 and Gβ1 sensors or 0.12 μg PKN-RBD-RlucII and 0.48 μg of rGFP-CAAX. For PKC activation, cells were transfected with 3 μg of sp-Flag-AT1R and 0.18 μg of the PKC sensor. For GTPase activation experiments, cells were transfected with 1 μg Flag-AT1R, 0.48 μg of rGFP-CAAX, and either 0.12 μg of GGA3-PBD-RlucII, PAK-CRIB-RlucII or Raf-RBD-RlucII. For biosensor validation experiments, cells were additionally transfected with 500 ng Flag-K-Ras-WT, Flag-K-Ras-G12V, Flag-K-Ras-SOS-CAAX, HA-ARF6-WT, HA-ARF6-T27N, Myc-Rac1-WT, Myc-Rac1-Q61L or Myc-Rac1-T17N. For PI3K/Akt activation experiments, cells were transfected with 0.48 μg of rGFP-CAAX and 0.12 μg of Akt (PH)-RlucII. After 18 h of transfection, the media was replaced and cells were divided for subsequent experiments. Cells were detached and seeded onto poly-L-ornithine-coated 96-well flat white bottom plates (BrandTech Scientific) at a density of 2.5 × 10^4 cells per well in media. The next day, cells were washed once with Tyrode’s buffer (140 mM NaCl, 2.7 mM KCl, 1 mM CaCl2, 12 mM NaHCO3, 5.6 mM D-glucose, 0.5 mM MgCl2, 0.37 mM NaH2PO4, 25 mM HEPES, pH 7.4) and left in Tyrode’s buffer. For kinetics of β-arrestin recruitment or β-arrestin binding to receptor and AP-2 experiments, cells were serum starved for 30 min, pretreated with 21 (50 µM) or Barbadin (100 µM) for 30 min, stimulated with 100 nM AngII or 1 µM BK and BRET signals were monitored at indicated times using a Victor X Light plate reader (PerkinElmer). Coelenterazine H (final concentration of 5 µM) was added 3–5 min prior to BRET measurements. Filter set was 460/80 nm and 535/30 nm for detecting the RlucII Renilla luciferase (donor) and YFP (acceptor) light emissions, respectively. The BRET ratio was determined by calculating the ratio of the light emitted by YFP over the light emitted by the RlucII. For G protein activation, cells were serum starved, pretreated with compounds for 30 min, stimulated with 100 nM AngII for 2 min (Gαq, Gαi3, and Rho sensors) or 5 min (PKC sensor). […]

CC(C)C(=O)N1CCN(c2ccc(NC(=O)c3cc4ccccc4o3)cc2Cl)CC1 [Compound 21]
inhibition at 50 µM (21 at 50 µM, read-out: inhibition of the AngII-mediated β-arrestin/AP-2 complex formation): ≤ 20% | AngII-promoted BRET, binding of β-arrestin2 to AP-2 (AngII + Comp 21 (50μM), time 0 min): 0 | AngII-promoted BRET, binding of β-arrestin2 to AP-2 (AngII + Comp 21 (50μM), time 2 min): 0.0291 and 0.02266 and 0.02708 | AngII-promoted BRET, binding of β-arrestin2 to AP-2 (AngII + Comp 21 (50μM), time 4 min): 0.03981 and 0.03342 and 0.03976 | AngII-promoted BRET, binding of β-arrestin2 to AP-2 (AngII + Comp 21 (50μM), time 8 min): 0.0471 and 0.04211 and 0.04647 | AngII-promoted BRET, binding of β-arrestin2 to AP-2 (AngII + Comp 21 (50μM), time 12 min): 0.04695 and 0.03931 and 0.04772 | AngII-promoted BRET, binding of β-arrestin2 to AP-2 (AngII + Comp 21 (50μM), time 20 min): 0.04571 and 0.04297 and 0.04991 | AngII-promoted BRET, binding of β-arrestin2 to AP-2 (AngII + Comp 21 (50μM), time 24 min): 0.04875 and 0.04367 and 0.04987

Nn1cnc2scc(-c3ccc(Cc4ccccc4)cc3)c2c1=O [Barbadin, reference compound]
AngII-promoted BRET, binding of β-arrestin2 to AP-2 (AngII + Barbadin (100 μM), time 0 min): 0 | AngII-promoted BRET, binding of β-arrestin2 to AP-2 (AngII + Barbadin (100 μM), time 2 min): 0.00931 and 0.01844 and 0.00859 | AngII-promoted BRET, binding of β-arrestin2 to AP-2 (AngII + Barbadin (100 μM), time 4 min): 0.01939 and 0.02951 and 0.01857 | AngII-promoted BRET, binding of β-arrestin2 to AP-2 (AngII + Barbadin (100 μM), time 8 min): 0.01773 and 0.0324 and 0.02267 | AngII-promoted BRET, binding of β-arrestin2 to AP-2 (AngII + Barbadin (100 μM), time 12 min): 0.01829 and 0.0336 and 0.02027 | AngII-promoted BRET, binding of β-arrestin2 to AP-2 (AngII + Barbadin (100 μM), time 20 min): 0.02374 and 0.03345 and 0.02061 | AngII-promoted BRET, binding of β-arrestin2 to AP-2 (AngII + Barbadin (100 μM), time 24 min): 0.01867 and 0.03563 and 0.02365 | inhibition of the formation of the β-arrestin/AP-2 complex mediated by AT1R (Barbadin 100 µM): more than 50%
